Target: T1, RcCUT1 (MBP-RcCUT1) (Ceratobasidium cereale, UniProt A0A346Q044)
T1 construct: E. coli BL21 (DE3); amylose resin; about 63 kDa on SDS-PAGE
Assay: spectrophotometric p-nitrophenol release at […] nm
Type: biochemical
Details: 1 mM substrate; 20 mM Tris-HCl, 10 mM NaCl, 50 mM sodium taurodeoxycholate, pH 8.0, 20 °C; MBP-tag alone inactive

T1 sequence (A0A346Q044 entry or part of it): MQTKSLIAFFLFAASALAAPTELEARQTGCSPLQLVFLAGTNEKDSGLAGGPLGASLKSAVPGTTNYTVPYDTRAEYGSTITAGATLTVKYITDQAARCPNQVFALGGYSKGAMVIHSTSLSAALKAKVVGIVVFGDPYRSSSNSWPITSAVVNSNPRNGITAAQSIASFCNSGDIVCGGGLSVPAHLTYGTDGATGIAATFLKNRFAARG

CCCC(=O)Oc1ccc([N+](=O)[O-])cc1 [p-nitrophenyl butyrate] was tested, and the “spectrophotometric p-nitrophenol release at 405 nm” value was “the purified MBP-RcCUT1 had the enzymatic activity for hydrolyzing pNPB substrate”.

— PMC6091245, “Genome-Wide Identification and Expression Analysis of Cutinase Gene Family in Rhizoctonia cerealis and Functional Study of an Active Cutinase RcCUT1 in the Fungal–Wheat Interaction” (Frontiers in Microbiology, 2018)
